Data as given in ChEMBL document CHEMBL1629646, “Continuous cefazolin infusion to treat bone and joint infections: clinical efficacy, feasibility, safety, and serum and bone concentrations” (Antimicrob Agents Chemother, 2009).
Values after ≈ are worked out from the molar mass of the structure shown.

How the values were obtained:
Bacillus pumilus = test: Antimicrobial activity against Bacillus pumilus SJ1554; assay type: functional
[1] = Drug level in patient serum with bone and joint infection at 60 to 80 mg/kg/day, iv administered as continuous infusion for 42 days measured from day 2 to 10 by agar disk diffusion assay; assay type: ADME, organism-based; parameters: route intravenous; settings: human, read-out: Drug uptake
[2] = Drug level in patient serum with bone and joint infection at 60 to 80 mg/kg/day, iv administered as continuous infusion for 42 days measured from day 11 to 21 by agar disk diffusion assay; assay type: ADME, organism-based; parameters: route intravenous; settings: human, read-out: Drug uptake
[3] = Drug level in patient bone with bone and joint infection measured per gram of tissue at 60 to 80 mg/kg/day, iv administered as continuous infusion for 42 days measured on day 7 by agar disk diffusion assay; assay type: ADME, organism-based, Bone element; parameters: route intravenous; settings: human, in vivo, 1008 h
[4] = Ratio of drug level in bone to serum in patient with bone and joint infection at 60 to 80 mg/kg/day, iv administered as continuous infusion for 42 days; assay type: ADME, organism-based; parameters: route intravenous; settings: human
Staphylococcus [5] = test: Antimicrobial activity against methicillin-susceptible Staphylococcus; assay type: functional
Streptococcus = test: Antimicrobial activity against Streptococcus; assay type: functional
Nucleic Acid = test: Ratio of drug level in patient bone with bone and joint infection to MIC90 for drug-susceptible Staphylococci; assay type: functional
Staphylococcus [6] = test: Ratio of drug level in patient serum with bone and joint infection to MIC90 for drug-susceptible Staphylococci

Compound | MIC (Bacillus pumilus) [µg/mL] | concentration at 1008 h [1] [µg/mL] | concentration at 1008 h [2] [µg/mL] | bone concentration [3] [µg/g] | Kp at 1008 h [4] | MIC90 (Staphylococcus [5]) [µg/mL] | MIC90 (Streptococcus) [µg/mL] | Ratio (Nucleic Acid) | Ratio (Staphylococcus [6])
C[C@@H]1O[C@@H]1P(=O)(O)O [FOSFOMYCIN] | > 512 | – | – | – | – | – | – | – | –
CO[C@H]1/C=C/O[C@@]2(C)Oc3c(C)c(O)c4c(O)c(c(/C=N/N5CCN(C)CC5)c(O)c4c3C2=O)NC(=O)/C(C)=C\C=C\[C@H](C)[C@H](O)[C@@H](C)[C@@H](O)[C@@H](C)[C@H](OC(C)=O)[C@@H]1C [RIFAMPIN] | > 128 | – | – | – | – | – | – | – | –
Cc1nnc(SCC2=C(C(=O)O)N3C(=O)[C@@H](NC(=O)Cn4cnnn4)[C@H]3SC2)s1 [CEFAZOLIN] | – | 63 | 57 | 13.5 | 0.25 | 1 (≈ 2.2 µM) | 0.1 (≈ 0.22 µM) | 5 | 60.8
